Source: US10196369B2, “Spirocyclic EBI2 modulators” (Sanford Burnham Prebys Medical Discovery Institute, priority 2013, dated 2019)

Biological target: EBI2 (Homo sapiens, UniProt P32249)
Test: Cell-based luminescent assay of EBI2 modulation (7a,25-OHC stimulated)
Settings: 7a,25-OHC final assay concentration 80 nM, 60 minute incubation
Summary of the method: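 Cells expressing EBI2 were plated overnight, then treated 60 min at 37 °C with compound (final 4-5 uM) plus 7a,25-OHC (80 nM final). Detection reagent was added for 60 min at 25 °C in the dark, with luminescence read-out. Values were normalized between neutral and stimulator controls and corrected for plate patterns.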

EBI2, sequence (P32249 whole entry): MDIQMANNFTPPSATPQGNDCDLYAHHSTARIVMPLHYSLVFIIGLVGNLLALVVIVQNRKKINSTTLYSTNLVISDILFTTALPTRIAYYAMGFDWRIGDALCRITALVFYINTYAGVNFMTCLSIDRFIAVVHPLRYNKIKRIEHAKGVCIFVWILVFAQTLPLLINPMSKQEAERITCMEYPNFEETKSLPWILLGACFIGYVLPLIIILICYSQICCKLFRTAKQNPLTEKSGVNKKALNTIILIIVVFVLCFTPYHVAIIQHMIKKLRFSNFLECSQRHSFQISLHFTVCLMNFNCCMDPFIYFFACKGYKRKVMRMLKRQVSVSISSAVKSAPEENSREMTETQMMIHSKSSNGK

SMILES	IC50 [nM]
O=C(C#Cc1ccc(Br)cc1)N1CC2(CCN(C(=O)c3ccc(C(F)(F)F)cc3)CC2)C1 [Compound C65, 3-(4-bromophenyl)-1-(7-{[4-(trifluoromethyl)phenyl]carbonyl}-2,7-diazaspiro[3.5]non-2-yl)prop-2-yn-1-one]	100 to 500
O=C(C#Cc1ccc(F)cc1)N1CC2(CCN(C(=O)c3ccc(F)cc3)CC2)C1 [Compound C93, 3-(4-fluorophenyl)-1-{7-[(4-fluorophenyl)carbonyl]-2,7-diazaspiro[3.5]non-2-yl}prop-2-yn-1-one]	500 to 5000
O=C(C#Cc1ccc(Cl)cc1)N1CC2(CCN(C(=O)c3ccc(F)cc3)CC2)C1 [Compound C3, 3-(4-chlorophenyl)-1-{7-[(4-fluorophenyl)carbonyl]-2,7-diazaspiro[3.5]non-2-yl}prop-2-yn-1-one]	100 to 500
O=C(c1ccc(C(F)(F)F)c(F)c1)N1CCC2(CC1)CN(C(=O)c1cc3cc(Cl)ccc3[nH]1)C2 [Compound C18, 5-chloroindol-2-yl 7-{[3-fluoro-4-(trifluoromethyl)phenyl]carbonyl}-2,7-diazaspiro[3.5]non-2-yl ketone]	< 100
O=C(c1ccc(Cl)cc1)N1CCC2(CC1)CN(C(=O)c1cc3cc(Cl)ccc3[nH]1)C2 [Compound C40, 5-chloroindol-2-yl 7-[(4-chlorophenyl)carbonyl]-2,7-diazaspiro[3.5]non-2-yl ketone]	< 100
